Assays:
[1] = target: ErbB2 extracellular domain 3; settings: cited from earlier work
ErbB2 on SKBR3 cells = assay: Binding co-localization with anti-ErbB2 antibody on cells; type: cell-based, human; settings: KSP*-Cy5.5 and anti-ErbB2-AF488, average of 3 independent measurements
Method: […] The cells were washed and fixed with 4% PFA for 5 min, and then incubated with primary anti-ErbB2 and secondary AF488-labeled antibody.
For imaging, we used an inverted confocal microscope (Olympus FV1200) with a 63X water immersion objective and λex = 748 nm to excite IRDye800CW, λex = 405 nm for DAPI, and λex = 488 nm for Alexa Fluor 488. For antibody staining, the cells were pre-fixed with cold methanol for 10 min at −20 °C and blocked with 2% BSA for 30 min at room temperature (RT). Cells were incubated with a 1:450 dilution of anti-ErbB2 antibody (clone 111.6, Thermo Scientific) overnight at 4 °C. The cells were then washed with PBS 3X, and secondary goat […] antibody labeled with Alexa-Fluor 488 (AF488) was added to the cells for 1 hour at RT. The cells were washed further with PBS and mounted onto cover glass. Fluorescence intensities were measured from 3 randomly positioned boxes with dimensions of 20 × 20 μm^2, and were quantified using custom Matlab (Mathworks) software.

[2] = tested on: ErbB2 on SKBR3 human breast cancer cells; assay: siRNA knockdown of ErbB2 in SKBR3 cells, binding of labeled ligand; type: cell-based
Method: We performed siRNA knockdown of ErbB2 in SKBR3 human breast cancer cells to validate specific binding of KSP* to ErbB2.
(§1) ~10^4 human breast cancer cells were seeded on 1 mm thick cover glass, and grown to ~80% confluence in 12 well plates. The cells were gently washed with cold PBS and blocked with 2% BSA before incubation with peptides. 1 μM of IRDye800CW-labeled peptides mixed with 2% BSA was added to each well and incubated at 4 °C for 1 hour. After incubation for […], the cells were washed with PBS 3X, fixed in ice cold 4% PFA for 10 min, and washed with PBS 1X. The cells were then embedded on microscope slides with 5 μL of ProLong Gold reagent containing DAPI (Invitrogen). SKBR3 cells were cultured in 6-well plates at 30–40% confluence in culture media supplemented with 10% fetal bovine serum without antibiotics. The cells were transfected with siRNA with a final concentration of […] using oligofectamine (Thermo Scientific).
We examined ErbB2 knockdown in SKBR3 cells using ON-TARGETplus human siRNA (#L-003126–00–0005), ON-TARGETplus Non-targeting pool (#D-001810–10–05), and DharmaFECT transfection reagents (Thermo Scientific) per manufacturer instructions. We transfected SKBR3 cells with either siErbB2 (targeting siRNA) or siCL (non-targeting siRNA) for control at a final concentration of […] using oligofectamine (Thermo Scientific).

ErbB2 = assay: Competition with unlabeled peptide for binding of labeled KSP* to cells; type: cell-based, human; settings: unlabeled peptide 0, 100, 250, 500, 1000 μM, 30 min at 4 °C; for effect of unlabeled peptide on binding of KSP*-IR800: BT474 cells as per Results text, then 0.5 μM labeled peptide; for effect of unlabeled peptide on mean fluorescence intensity of KSP*-Cy5.5: SKBR3 cells, one-way ANOVA (Fig. 2 legend)
Method: We performed competition by adding either unlabeled KSP* or PPS* peptide to block binding of KSP*-IR800 to BT474 cells. […] We also observed good co-localization of binding between KSP*-Cy5.5 (red) and AlexaFluor488-labeled anti-ErbB2 antibody (green) with Pearson’s correlation coefficient ρ = 0.70, Fig. 2P–S.
Specific binding of KSP*-IR800 to SKBR3 cells was validated using competition with unlabeled KSP* peptide. SKBR3 cells were grown to ~70% confluence on coverslips in triplicate. Unlabeled KSP* at concentrations of 0, 100, 250, 500, and 1000 μM was incubated with the cells for 30 min at 4 °C. The cells were washed with PBS 3X, and further incubated with 0.5 μM of KSP*-IR800 for another 30 min at 4 °C. The cells were washed with PBS 3X and fixed with 4% PFA for 10 min. The cells were washed with PBS and then mounted with ProLong Gold reagent containing DAPI (Invitrogen). Confocal fluorescence images were collected and intensities from 6 independent images at each concentration were quantified using custom Matlab (Mathworks) software.

[3] = tested on: ErbB2 in BT474 and MDA-MB-231 xenograft tumor and normal breast sections; assay: Immunofluorescence of human xenograft breast tumor sections; design: species or system mouse; settings: 0.5 μM peptide, 10 min at RT
Method: Representative histology (H&E) for the MDA-MB-231 tumor is shown, Fig. S7I. […] Representative histology (H&E) for normal is shown, Fig. S7M.
(§2) Resected human xenograft breast tumors and normal breast tissues from n = 8 mice were formalin-fixed, paraffin embedded, and cut in 5 μm thick sections. IDC and normal human breast tissues were collected and prepared with the same protocol. The specimens were cut in 5 μm sections, and deparaffinization, rehydration and antigen unmasking was performed, as described previously. Blocking was performed with DAKO protein blocking agent (X0909, DAKO) for 1 hour at RT. Sections were then incubated with 0.5 μM of either peptide in 2% BSA for 10 min at RT. The sections were washed with PBS 3X and mounted with Prolong Gold reagent containing DAPI (Invitrogen).

[4] = tested on: ErbB2 in human breast specimens (IDC, DCIS, normal); assay: Immunofluorescence of human breast specimens ex vivo
Description: We evaluated peptide binding to sections of human breast specimens to assess potential for clinical translation. […] Representative histology (H&E) is shown, Fig. 6D. We also observed strong co-localization of binding (arrow) between KSP*-IR800 peptide (red) and AF488-labeled anti-ErbB2 antibody (green) to ErbB2 + IDC specimens with Pearson’s correlation coefficient of ρ = 0.53, Fig. 6E,F. We quantified the fluorescence intensities, Fig. 6G. […] Representative histology (H&E) for DCIS is shown, Fig. 6M. […] Representative histology (H&E) for normal is shown, Fig. 6O.
as §2
Formalin-fixed, paraffin-embedded (FFPE) human breast specimens known to express ErbB2 (n = 4 patients) were obtained from the archived tissue bank in the Department of Pathology at the University of Michigan. 5 μm sections were cut and rehydrated to water. Slides were counterstained with Harris Hematoxylin for 5 sec, dehydrated, and cover-slipped. Heat induced epitope retrieval was performed with FLEX TRS High pH Retrieval buffer (DAKO, 9.01) for 20 min. After peroxidase blocking, the antibody Her2/neu rabbit monoclonal (Cell Marque Corporation, SP3 cat#237R-16) was applied at a dilution of 1:150 at RT for 20 min. The EnVision + detection System HRP anti-rabbit (DAKO, #K4002) was used for detection. DAB chromogen was then applied for 10 min. Sections of human breast specimens were mounted onto glass slides (Superfrost Plus, Fischer Scientific). The tissues were deparaffinized, and antigen retrieval was performed, as discussed above. Histology and IHC were performed to evaluate for ErbB2 expression.
Human breast specimens were embedded in paraffin and antigen unmasking was performed as described above. Blocking was performed with 2% BSA solution in PBS at RT for 1 hour. We used 1:250 dilution of monoclonal mouse anti-ErbB2 antibody (clone 111.6, Thermo Scientific). The sections were incubated at RT for 1 hour with primary antibody and then washed in PBS for 5 min. […] Fluorescence intensities were measured from 3 randomly positioned boxes with dimensions of 20 × 20 μm^2.

[5] = tested on: ErbB2 on BT474 (ErbB2+) and MDA-MB-231 (ErbB2−) human breast cancer cells; assay: Confocal microscopy of NIR-labeled peptide binding to breast cancer cells; type: cell-based; settings: 1 μM peptide, 2% BSA, 4 °C, 1 hour
Method: as §1
For imaging, we used an inverted confocal microscope (Olympus FV1200) with a 63X water immersion objective and λex = 748 nm to excite IRDye800CW, λex = 405 nm for DAPI, and λex = 488 nm for Alexa Fluor 488. For antibody staining, the cells were pre-fixed with cold methanol for 10 min at −20 °C and blocked with 2% BSA for 30 min at room temperature (RT). […] Fluorescence intensities were measured from 3 randomly positioned boxes with dimensions of 20 × 20 μm^2, and were quantified using custom Matlab (Mathworks) software.

[6] = Absorption and fluorescence emission spectra; type: physicochemical
Description: We synthesized the ErbB2 and control peptides using standard Fmoc mediated solid-phase chemical synthesis and labeled with either Cy5.5 or IRDye800 fluorophores via standard bio-conjugation techniques. We used IRDye800CW-malemide (LiCor Biosciences) to label the peptide via a GGGSC linker at the C-terminus. The coupling yield was about 20–30% in aqueous solution without use of catalysis. IRDye800CW was used because of its high quantum yield, photostability, and lack of toxicity. The peptide absorption spectrum was measured using a UV-vis spectrophotometer in the 300–900 nm range (NanoDrop 2000, Thermo Scientific). Fluorescence emission from a 5 μM peptide solution diluted in PBS was collected with a fiber coupled spectrophotometer (Ocean Optics) using a diode pumped solid state laser (Technica Laser Inc) with excitation at λex = 780 nm. The spectra were plotted using Origin 9.5 software (OriginLab Corp).

For KSPNPRF [KSP*-Cy5.5], the Kd ([1]; peptide labeled with Cy5.5, read-out: affinity) is listed as 0.02 µM, the “binding kinetics (rate)” value ([1]; peptide labeled with Cy5.5) is listed as 0.14 min⁻¹ and the “Pearson's correlation coefficient ρ for co-localization with anti-ErbB2-AF488” value (ErbB2 on SKBR3 cells) is listed as 0.70. The “fold greater signal, siCL control versus siErbB2 knockdown cells” value ([2]; SKBR3, average of 3 independent measurements, ANOVA, difference of differences significant) was 4.42 fold, the “reduction in fluorescence intensities in ErbB2 knockdown cells” value ([2]; SKBR3 siErbB2 versus siCL, qualitative) was “significant reduction” and the “binding to cell surface” value ([2]; control SKBR3 cells (siCL), qualitative) was “strong binding”.

In the case of KSPNPRF [KSP*], the “effect of unlabeled peptide on binding of KSP*-IR800” value (ErbB2) is reported as “decreases significantly in a concentration dependent manner” and the “effect of unlabeled peptide on mean fluorescence intensity of KSP*-Cy5.5” value (ErbB2) is reported as “decreases significantly in a concentration dependent manner”.

In the case of “PPSNFKR [PPS*, unlabeled scrambled control peptide]”, the “effect of unlabeled peptide on binding of KSP*-IR800” value (ErbB2) is reported as “significantly less effective competition” and the “effect of unlabeled peptide on mean fluorescence intensity of KSP*-Cy5.5” value (ErbB2) is reported as “significantly less affected”.

In the case of PPSNFKR [PPS*-IR800], the “binding / signal on immunofluorescence” value ([3]; BT474 xenograft tumor sections, 2% BSA, qualitative) is reported as “minimal signal”, the “fluorescence intensity on immunofluorescence” value ([3]; MDA-MB-231 tumor sections, qualitative) is reported as “minimal” and the “fluorescence intensity on immunofluorescence” value ([3]; normal breast sections, qualitative) is reported as “minimal”. The “fold increase, BT474 versus MDA-MB-231 tumors” value ([3]; xenograft tumor sections, ANOVA with terms for 6 groups on log-transformed data) was 1.8 fold, the “binding / signal on immunofluorescence” value ([4]; ductal carcinoma in situ (DCIS), 0.5 μM peptide, 10 min at RT, qualitative) was “minimal signal” and the “binding / signal on immunofluorescence” value ([4]; invasive ductal carcinoma (IDC), 0.5 μM peptide, 2% BSA, 10 min at RT, qualitative) was “minimal signal”. For the same substance, the “fold greater signal, IDC (ErbB2+) versus normal (ErbB2−) breast” value ([4]; n = 4 patients, ANOVA on log-transformed data, difference of differences not significant, P = 0.09) was 1.30 fold, the staining on immunofluorescence ([4]; normal human breast tissue, 0.5 μM peptide, 10 min at RT, qualitative) was “minimal staining” and the “fold greater signal, BT474 versus MDA-MB-231 cells” value ([5]; average of 3 independent measurements, ANOVA on log-transformed data, difference of differences significant) was 1.04 fold. For the same substance, the “signal to cell surface” value ([5]; either cell (BT474 and MDA-MB-231), qualitative) was “Minimal signal”, the “peak emission λem” value ([6]; 5 μM peptide solution diluted in PBS, excitation 780 nm) was 800 nm and the “maximum absorbance λex” value ([6]; UV-vis spectrophotometer, 300–900 nm range) was 780 nm.

Reference: article PMC5663926, “In vivo near-infrared imaging of ErbB2 expressing breast tumors with dual-axes confocal endomicroscopy using a targeted peptide” (Scientific Reports, 2017)
